Results on 26 molecules are retold here after patent US11702666B2, “Cell-based assay for determining activity in the retinoblastoma pathway” (Medical Diagnostic Laboratories, LLC, priority 2017, dated 2023).

Numbering of substitutions follows the chain as printed. In names and notes the source's numbering stands. Entries after “also recorded” stand apart in the source; their conditions may differ.

Test [1] concerns Rb/E2F1-Dp-1 complex. The test can be described thus: CDK6 mutant activity / drug resistance in NanoBiT assay, stable cell line #11. Format: cell-based, human. The following applies: for Luc. activity (/wt): relative to WT; for Luc activity (/wt): CDK6 mutants, compared to the WT (being 100%). The procedure:
(§1) A linear expression cassette of mutated CDK4 or CDK6 was generated by PCR mediated overlapping extension method. A pair of forward and reverse primers containing the targeted mutations was designed. The mutated codon was located in the middle of a primer flanked by 18-21 nucleotides on each side. Two PCRs (named as PCR #1 and PCR #2 in FIG. 1) were performed using UF-CMV forward and mutated reverse primers, or mutated forward and BGH-UR primers. The PCR products were cleaned up by ExoSAP-IT® (Affymetrix) to remove unconsumed dNTPs and primers. The treated PCR products were mixed together followed by dilution with water. A second round of PCR was performed using the diluted PCR mixture, and the UF and UR primers (FIG. 1). The amplified products were gel-purified. The DNA concentration was quantitated by the optical density at 260 nm using Nanodrop. The targeted mutations were incorporated in the CDK4 or CDK6 genes during the PCR mediated overlapping extension method. The introduced mutations were confirmed by the DNA sequencing.
(§2) To examine the ability of the assay to detect variants in CDK4 or CDK6 that affect function, kinase dead mutants and COSMIC (Catalogue Of Somatic Mutations in cancer) unknown mutants were created. For comparison, hyperactive CDK4 or CDK6 mutants known to be hyperactive due to less binding to natural inhibitor p16 were also created. The mutations in CDK4 or CDK6 were created by site-directed mutagenesis. WT or mutated CDK4 or CDK6 along with the CyclinD1 and SB-Rb were co-transfected, under similar conditions as previously indicated (see FIG. 9).
(§3) Computer modeling was used to reveal the drug-binding pocket and predict drug-resistant mutants. The mutations in CDK4 and CDK6 were created by site-directed mutagenesis. WT or mutated CDK4 or CDK6 along with the CyclinD1 and SB-Rb was co-transfected into #11 cell line, under the same conditions as previously indicated. […] Dose response curves are presented on FIG. 13A and FIG. 13B. Activity of other mutants was very similar to the WT or KD.
(§4) CDK4 and CDK6 mutants with known function and unknown function taken from the COSMIC database were analyzed in the present assay and are summarized in Table 7A and Table 7B. The mutants were classified according to their activity. Table 7A and Table 7B also show the number of counts per mutant in the COSMIC database, type of cancer, and luciferase activity compared to the WT (being 100%).

Test [2] deals with T1, CDK4 (Homo sapiens, UniProt P11802).
T1 construct: expressed in transfected cells; host or cells: HEK293 CDK4/CDK6 double-knockout cells stably expressing E2F1-Dp-1-LB (clone #11); early experiments in plain HEK293
T1 sequence (P11802 2-303): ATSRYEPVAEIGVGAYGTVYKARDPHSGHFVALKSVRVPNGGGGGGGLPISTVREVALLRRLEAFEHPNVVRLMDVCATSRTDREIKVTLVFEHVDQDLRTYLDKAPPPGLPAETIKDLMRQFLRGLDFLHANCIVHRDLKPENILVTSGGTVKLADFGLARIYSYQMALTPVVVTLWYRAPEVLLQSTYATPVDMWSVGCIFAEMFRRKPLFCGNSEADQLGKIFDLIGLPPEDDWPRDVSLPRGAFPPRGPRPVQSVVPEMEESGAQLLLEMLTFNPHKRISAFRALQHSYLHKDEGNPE
The experiment in a line: p16 activity assay with CDK4 (NanoBiT, cell line #11). The settings on record: for signal of p16 mutant (in words): loss of function mutants; for Observed function: p16 (CDKN2A) mutants, with CDK4. Format: cell-based. The source says:
We developed an assay that could measure the interaction between Rb, E2F1 and Dp-1. When the Rb and E2F1 proteins are in close proximity or in complex, a light signal is observed. For the purpose of the assay, split-luciferase complementation was used to measure the interaction between Rb and E2F1, which served as a surrogate measure of CDK4/6 activity and the ability of CDK4/6 to respond to the natural inhibitor p16. The NanoBiT assay system by Promega (Madison, Wis.; Dixon et al., 2015, ACS ChemBiol) was used in the split luciferase complementation design. FIG. 24 depicts a design of a signal system to measure p16 activity. Under basal conditions inside the cell, Rb is active and interacts with the E2F1/Dp-1 heterodimer. However, in the presence of the CDK4 or CDK6, Rb gets phosphorylated and released from the interacting complex. In the presence of the natural inhibitor p16, CDK4/6 is no longer available to phosphorylate Rb and thus promoting the Rb/E2F1-Dp-1 complex formation.
For the purpose of the current assay, the stable cell line #11 that we generated for the CDK activity assay was used and described above. HEK293 CDK DKO cells containing E2F1-Dp-1-LB was transiently transfected with CDK4/CDK6, CyclinD1, and SB-Rb. The transfected cells were then exposed to the natural inhibitor p16 (FIG. 25). When CDK4 or CDK6 is present, a decrease in activity was observed as Rb gets phosphorylated resulting in no Rb/E2F1-Dp-1 interaction. […] The data presented was a sample experiment where each condition was performed in triplicate and represented mean+SD.
The conditions of the assay were optimized by using different p16 amounts and cell numbers (FIGS. 25A and 25B). Based on the data generated, it was decided that using 0.2×10^6 cells/ml and 10 ng of p16 would be preferable.
To examine the ability of the assay to detect variants in CDKN2A that affect function, known loss of function mutants and unknown COSMIC mutants were created. Wild-type or mutated CDKN2A were prepared in a manner similar to that previously indicated. […] Therefore the p16 activity assay is capable of determining the relative activity level of p16 mutants. The data provided is in Luminescence (RLU) of a single experiment with each condition performed in triplicate and represent average+SD. Summary Table 13 reports p16 mutants tested.
In addition to check functional state of p16 mutants, p16 activity assay can be used to look at p16 inhibition response of different CDK4 and CDK6 mutants. Different response of WT CDK4 and CDK6 and hyperactive mutants of CDK4 (R24A) and CDK6 (R31C) is shown on FIG. 28. […] The p16 activity assay is so sensitive and specific that hyperactive CDK4 and CDK6 mutants can show different response to mutant p16.

Test [3] has as its system CDK4. The following applies: p16 (CDKN2A) mutants; cited from earlier work.
The test system of test [4] is Rb/E2F1-Dp-1 complex. The experiment in a line: CDK4 mutant activity / drug resistance in NanoBiT assay, stable cell line #11. The settings on record: CDK4 mutants, compared to the WT (being 100%). Format: cell-based, human. On the procedure: as §1, §2
To examine the specificity of the assay, particular CDK4 kinase dead mutants were created. Modifications to D158 were made by changing aspartate to nonpolar alanine (D158A) or positively charged arginine (D158R). […] The mutations in CDK4 were created by site-directed mutagenesis. WT or mutated CDK4 along with the CyclinD1 and SB-Rb was co-transfected into the #11 cell line, under the same conditions as previously indicated. […] Kinase dead mutants have the high signal due to inability to phosphorylate Rb.
as §3, §4

The test system of test [5] is Rb/E2F1-Dp-1 complex. The following applies: CDK4 mutants, literature ref.; Hyper = hyperactive, KD = kinase dead; cited from earlier work.
The mark [6] stands for this setting: predicted drug resistant CDK6 mutants.

For “CDK6 H100Y: predicted drug resistant CDK6 mutant”, in test [1] (setting [6]), the Luc. activity (/wt) is 126%. As for “CDK6 A41V: predicted drug resistant CDK6 mutant”, the Luc. activity (/wt) in test [1] (setting [6]) was 132%. Take “CDK6 T107K: predicted drug resistant CDK6 mutant”: the Luc. activity (/wt) in test [1] (setting [6]) was 95%. Moreover, the Observed drug resist. result in test [1] (predicted drug resistant CDK6 mutants, Palbociclib/Ribociclib) is “showed drug resistance; also recorded: Resistant”.

In the case of “CDK6 R144H: CDK6 mutant from COSMIC database”, the “Luc activity (/wt)” value in test [1] is on record as 267%. For the molecule “CDK6 R220S: CDK6 mutant from COSMIC database”, the “Luc activity (/wt)” value in test [1] is reported as 271%. As to “CDK6 K43M: CDK6 mutant, literature kinase dead”, in test [1], the “Luc activity (/wt)” value amounted to 468%.

As to “CDK6 L152V: predicted drug resistant CDK6 mutant”, the Luc. activity (/wt) in test [1] (setting [6]) was 114%.

Consider “CDK6 V27A: predicted drug resistant CDK6 mutant”, for which the Luc. activity (/wt) in test [1] (setting [6]) is 149%. For the molecule “CDK6 P199L: CDK6 mutant from COSMIC database”, in test [1], the “Luc activity (/wt)” value was 565%. Regarding “CDK6 R220C: CDK6 mutant from COSMIC database”, in test [1], the “Luc activity (/wt)” value is 164%. Take “CDK6 I19L: predicted drug resistant CDK6 mutant”: the Luc. activity (/wt) in test [1] (setting [6]) was 129%. On to “CDK6 F98I: predicted drug resistant CDK6 mutant”, for which the Luc. activity (/wt) in test [1] (setting [6]) was 176%. On to “CDK6 D163N: CDK6 mutant, literature kinase dead”, for which, in test [1], the “Luc activity (/wt)” value is recorded as 408%.

Take “CDK6 D104N: predicted drug resistant CDK6 mutant”: in test [1] (setting [6]), the Luc. activity (/wt) was 138%.

B1: p16 A20P: p16 (CDKN2A) mutant (protein)
chain: MEPAAGSSMEPSADWLATAPARGRVEEVRALLEAGALPNAPNSYGRRPIQVMMMGSARVAELLLLHGAEPNCADPATLTRPVHDAAREGFLDTLVVLHRAGARLDVRDAWGRLPVDLAEELGHRDVARYLRAAAGGTRGSNHARIDAAEGPSDIPD
Consider B1, for which, in test [2], the “signal of p16 mutant (in words)” value is “close to the baseline”.

B2: p16 A148T: p16 (CDKN2A) mutant (protein)
chain: B1 chain with P20A, A148T
B2: in test [2], the Observed function entry is given as “Normal”. For the same molecule, the Literature reported function entry in test [3] is on record as “Normal”.

B3: p16 G101W: p16 (CDKN2A) mutant (protein)
chain: B1 chain with P20A, G101W
As for B3, in test [2], the Observed function entry is listed as “Reduced”.

B4: p16 R144C: p16 (CDKN2A) mutant (protein)
chain: B1 chain with P20A, R144C
As for B4, in test [2], the Observed function result is listed as “Normal”. In addition, the Literature reported function result in test [3] is “Normal”.

B5: p16 A36G: p16 (CDKN2A) mutant (protein)
chain: B1 chain with P20A, A36G
In the case of B5, the Observed function entry in test [2] was “Normal”.

B6: p16 D14G: p16 (CDKN2A) mutant (protein)
chain: B1 chain with D14G, P20A
With B6, in test [2], the Observed function result is “Normal”.

B7: p16 P114L: p16 (CDKN2A) mutant (protein)
chain: B1 chain with P20A, P114L
B7: in test [2], the “signal of p16 mutant (in words)” value is reported as “close to the baseline”.

B8: p16 S56N: p16 (CDKN2A) mutant (protein)
chain: B1 chain with P20A, S56N
Regarding B8, the Observed function entry in test [2] is “Normal”.

B9: p16 D108N: p16 (CDKN2A) mutant (protein)
chain: B1 chain with P20A, D108N
Take B9: in test [2], the Observed function result is reported as “Normal”.

B10: p16 H83Y: p16 (CDKN2A) mutant (protein)
chain: B1 chain with P20A, H83Y
Turning to B10, the “signal of p16 mutant (in words)” value in test [2] is reported as “close to the baseline”.

B11: p16 V126D: p16 (CDKN2A) mutant (protein)
chain: B1 chain with P20A, V126D
On to B11, for which, in test [2], the “signal of p16 mutant (in words)” value is “close to the baseline”.

B12: CDK4 K22A: CDK4 mutant, literature hyperactive (protein, UniProt P11802 2-303, looked up, variant K22A)
Cyclin-dependent kinase 4: ATSRYEPVAEIGVGAYGTVYAARDPHSGHFVALKSVRVPNGGGGGGGLPISTVREVALLRRLEAFEHPNVVRLMDVCATSRTDREIKVTLVFEHVDQDLRTYLDKAPPPGLPAETIKDLMRQFLRGLDFLHANCIVHRDLKPENILVTSGGTVKLADFGLARIYSYQMALTPVVVTLWYRAPEVLLQSTYATPVDMWSVGCIFAEMFRRKPLFCGNSEADQLGKIFDLIGLPPEDDWPRDVSLPRGAFPPRGPRPVQSVVPEMEESGAQLLLEMLTFNPHKRISAFRALQHSYLHKDEGNPE
Take B12: in test [4], the “Luc. activity (/wt)” value is 67.5%. Also, the Reported activity entry in test [5] was “Hyper”.
